Laboratory results reported in patent US10799512B2, “Estrogen combination for treatment of multiple sclerosis” (The Regents of the University of California, priority 2014, dated 2020).

Assays:
Type in all cases: in vivo, human
[1] = test system: female patients with active relapsing multiple sclerosis; assay: Safety and tolerability (gynecological and breast exams, adverse events); conditions: patients received Copaxone with estriol
Description: 158 patients were randomized to Copaxone® (glatiramer acetate) injections (20 mg/day) and oral estriol (8 mg/day) or to Copaxone® injections and placebo for a 24-month treatment duration. Gynecologists examined the patients before, during, and after the study. Each patient was examined at three- to six-month intervals during the trial. Patients also underwent mammograms before and after the study. In addition, at baseline, three months, six months, 12 months, 18 months, and 24 months, the investigators measured participants' estriol levels, and assessed for MS relapses and MS-related disabilities.
Baseline characteristics were similar in both patient groups. Participants' mean age at entry was approximately 38, and their mean EDSS score at entry was 2.2. […] To ensure breast and uterus safety, every three months the patients took norethindrone 0.7 mg once a day for 14 days.

[2] = Estriol blood/serum levels in treated patients
Description: (§1) Patients also underwent mammograms before and after the study.
Baseline characteristics were similar in both patient groups.
FIG. 6 depicts estriol blood levels induced by treatment with estriol 8 mg per day every day plus norethindrone 0.7 mg a day for 14 days every 3 months.

[3] = test system: female patients with active relapsing multiple sclerosis; assay: Brain MRI, gadolinium enhancing lesions; conditions: at month 12; p=0.14
Excerpt: as §1
Brain MRI is used extensively in MS as a surrogate marker for clinical effects. Brain white matter gadolinium enhancing lesions are a biomarker for relapses.

[4] = test system: female patients with active relapsing multiple sclerosis; assay: Expanded Disability Status Scale (EDSS); conditions: over 24 months
Excerpt: as §1
The Expanded Disability Status Scale (EDSS) is a standard composite disability score used in MS trials. Higher scores indicate worse disability. This composite covers a variety of disabilities (including ambulation, vision, cognition, coordination, etc.), but the scoring is not linear and the composite score is understood to be principally an indicator of the level of disability in ambulation.

[5] = test system: female patients with active relapsing multiple sclerosis; assay: Timed 25-foot walk test; conditions: between-group difference p=0.02; higher time = worse
Excerpt: as §1
Another clinical disability measure with treatment effects was the timed 25-foot walk test. This test measures how many seconds it takes to walk 25 feet, with higher scores indicating worse disability. […] This beneficial effect of estriol treatment on 25-foot walking times is consistent with the beneficial effect of estriol treatment on EDSS scores since the latter is weighted toward being an indicator of ambulation.

Row | estriol blood levels induced ([2]; estriol 8 mg per day every day plus norethindrone 0.7 mg a day for 14 days every 3 months, FIG. 6) | estriol levels in serum ([2]; estriol-treated group, oral estriol 8 mg/day) | Compound | Breast - Fibrocystic breast disease on clinical exam [1] | Uterine fibroids on ultrasound [1] | reduction in number of subjects with brain MRI scans positive for enhancing lesions [3] | EDSS scores, slope ([4]; FIG. 4, p=0.06 (estriol), p=0.90 (placebo)) | change in EDSS scores ([4]; decrease = improvement) | change in 25-foot walk time [5]
1 | about 10 ng/ml | mid-pregnancy range | C[C@]12CC[C@@H]3c4ccc(O)cc4CC[C@H]3[C@@H]1C[C@@H](O)[C@@H]2O [estriol] | 5 subjects | 8 subjects |  |  |  | 
2 |  |  | glatiramer acetate [Copaxone® plus placebo] |  |  | 22% | −0.01 | no change | significantly increased
